Source: patent US20260055078A1, “COMPOUND FUNCTIONING AS SMARCA2/4 INHIBITOR AND USE THEREOF” (Gan & Lee Pharmaceuticals Co., Ltd., priority 2022, published 2026)

What was measured:
SMARCA2^BD protein = target: T1, SMARCA2^BD protein (Homo sapiens, UniProt P51531, I1395R); test: Fluorescence polarization (FP) detection, SMARCA2 bromodomain; type: binding; conditions: probe 10 nM, SMARCA2^BD protein 50 nM, 2 h room temperature
T1 construct: His-SMARCA2^BD(S1377-Q1486); His6 (leader mhhhhhhgslvpr\gs, with thrombin-type site lvpr\gs) (N); made in house
T1 sequence (P51531 1377-1486 isoform P51531-2 I1395R): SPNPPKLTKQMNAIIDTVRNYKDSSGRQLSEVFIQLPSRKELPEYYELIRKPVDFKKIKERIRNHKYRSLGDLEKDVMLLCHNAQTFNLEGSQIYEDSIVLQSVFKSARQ
Procedure: (§1) • 1. Perform a fluorescence polarization assay on with the target protein, which has been expressed and purified from prokaryotic cells to a purity of >90%.
(§2) • 2. The fluorescence polarization assay was conducted in a 384-well plate (3820, Corning) protected from light, with an excitation wavelength of 485 nm and an emission wavelength of 520 nm. Fluorescent probe was used in the experiment, and the buffer solution was 25 mM Bis-Tris, 0.01% Triton X-100, at pH 7.5. The final concentration of DMSO after the addition of the compound was less than 1%. The final detection volume per well was 125 μl, containing 50 μl of the fluorescent probe (final concentration 10 nM), 50 μl of SMARCA2^BD protein (final concentration 50 nM) or 50 μl of SMARCA4^BD protein (final concentration 120 nM), and 25 μl of the compound at various concentrations (final concentration ranging from 0 to 100 µM with a 3-fold dilution, a total of 11 concentrations). A control group (probe+protein), a probe control group (probe only), and a blank control group (buffer only) were set up. The fluorescence values were read by an ELISA reader r (SPARK m1000 pro, TECAN) after incubation for 2 h at room temperature on a shaker. The polarization value mP is calculated based on the fluorescence values in parallel and perpendicular directions of each well, and then the inhibition rate is calculated based on the mP value:
(§3) The inhibition rate data was plotted in GraphPad Prism 8.0 software and the IC50 value was calculated.

MCF-7 cell line = test: Cell proliferation assay (CCK-8), MCF-7; type: cell-based; conditions: Homo sapiens, MCF7, 168 h; Table 1; 7 days incubation with compound; read-out: MCF-7 cell line CCK8 IC50
Procedure: (§4) The antiproliferative activity of the compounds on the cells was determined by CCK-8 kit (C0039, Biotronik). A549 (CCL-185™, ATCC) and MCF-7 (HTB-22™, ATCC) cells were incubated with F-12K medium (30-2004, ATCC) containing 10% FBS (10099141C, Gibco) and DMEM medium (11995065, Gibco) containing 10% FBS, respectively, at 37° C. with 5% CO2 until entering the logarithmic growth phase. In 96-well plates, 2800 cells (A549) or 1000 cells (MCF-7) was added in a volume of 100 μL, the blank control group was 100 μL of medium. After one day of incubation at 37° C., 5% CO2, 100 μL of compounds of different concentrations were added (final concentration of […], 3-fold dilution, a total of 9 concentrations), and the control group was added to 100 μL of medium and continued to be incubation for 4 days (A549) or 7 days (MCF-7). According to the manufacturer's instructions, 20 μL of CCK-8 solution was added. Finally, the absorbance at 450 nm was measured using a microplate reader (SPARK m1000 pro, TECAN) after incubation at 37° C. for 2 h (A549) or 4 h (MCF-7).
(§5) The inhibition rate of the compounds on the cells at different concentrations was calculated based on the OD values of each well, and the inhibition rate data were plotted in GraphPad Prism 8.0 software to calculate the IC50 values.

A549 cell line = test: Cell proliferation assay (CCK-8), A549; type: cell-based; conditions: Homo sapiens, A549, 96 h; Table 1; 4 days incubation with compound; read-out: A549 cell line CCK8 IC50
Procedure: as §4, §5

SW1573 cell line = test: Cell proliferation assay (CCK-8), SW1573; type: cell-based; conditions: Homo sapiens, SW1573, 168 h; Table 2; 7 days incubation with compound; read-out: SW1573 cell line CCK8 IC50
Procedure: (§6) The antiproliferative activity of the compounds on the cells was determined by CCK-8 kit (C0039, Biotronik). Hela (CCL-2™, ATCC) and SW1573 (CRL-2170™, ATCC) cells were incubated with DMEM medium (11995065, Gibco) containing 10% FBS (10099141C, Gibco) at 37° C. with 5% CO2 until entering the logarithmic growth phase. In 96-well plates, 2500 cells (Hela) or 800 cells (SW1573) were added in a volume of 100 μL, the blank control group was 100 μL of medium, and after one day of incubation at 37° C., 5% CO2, 100 μL of compounds of different concentrations were added (final concentration of […], 3-fold dilution, a total of 9 concentrations), and the control group was added to 100 μL of medium and continued to incubate for 3 days (Hela) or 7 days (SW1573). Then 20 μL of CCK-8 solution were added. Finally, the absorbance at 450 nm was measured using a microplate reader (SPARK m1000 pro, TECAN) after incubation at 37° C. for 1.5 h (Hela) or 2.5 h (SW1573).
as §5

Hela cell line = test: Cell proliferation assay (CCK-8), Hela; type: cell-based; conditions: Homo sapiens, 72 h, Table 2, 3 days incubation with compound, read-out: Hela cell line CCK8 IC50
Procedure: as §6, §5

SMARCA4^BD protein = target: T2, SMARCA4^BD protein (Homo sapiens, UniProt P51532); test: Fluorescence polarization (FP) detection, SMARCA4 bromodomain; type: binding; conditions: probe 10 nM, SMARCA4^BD protein 120 nM, 2 h room temperature
T2 construct: His6 (leader mhhhhhhgslvpr\gs, with thrombin-type site lvpr\gs) (N); made in house
T2 sequence (P51532 1448-1575): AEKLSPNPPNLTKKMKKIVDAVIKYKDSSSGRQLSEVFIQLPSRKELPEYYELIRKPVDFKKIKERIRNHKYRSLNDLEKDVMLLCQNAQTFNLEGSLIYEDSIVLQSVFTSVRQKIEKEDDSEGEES
Procedure: as §1, §2, §3

148 cancer cells = conditions: background, literature; cited from earlier work
[1] = aryl ketone linked to tertiary amines; limited intracellular exposure time; literature; cited from earlier work

Q: With `CC(=O)N1CCN(c2cc(-c3ccccc3O)nnc2N)CC1` [Control compound, reference compound] as the molecule, how does the IC50 (SMARCA2^BD protein; Table 1) read?
A: 0.7 µM

Q: What about the IC50 (MCF-7 cell line) of the same molecule?
A: 73.9 µM

Q: And the IC50 (A549 cell line)?
A: > 100 µM

Q: What about the IC50 (SW1573 cell line) of the same molecule?
A: > 100 µM

Q: And the IC50 (Hela cell line)?
A: > 100 µM

Q: And the IC50 (SMARCA4^BD protein; Table 1)?
A: 0.53 µM

Q: Which IC50 (SMARCA2^BD protein; Table 2) does the source give for `COC1(C#Cc2cc(-c3ccccc3O)nnc2N)CCC(N2CCCC2)CC1` (stereo not shown) [Compound 15, 2-(6-amino-5-((1-methoxy-4-(pyrrolidin-1-yl)cyclohexyl)ethynyl)pyridazin-3-yl)phenol] here?
A: 0.19 µM

Q: And the IC50 (SW1573 cell line)?
A: 13.1 µM

Q: And the IC50 (Hela cell line)?
A: 25.3 µM

Q: And the IC50 (SMARCA4^BD protein; Table 2)?
A: 0.21 µM

Q: Which results are given for `Nc1nnc(-c2ccccc2O)cc1C#CC1CNC1` [Compound 3c, 2-(6-amino-5-(azetidinyl-3-ethylenylidene)pyridazin-3-yl)phenol]?
A: IC50 (SMARCA2^BD protein; Table 1): 0.48 µM; IC50 (MCF-7 cell line): 31 µM; IC50 (A549 cell line): 73.3 µM; IC50 (SMARCA4^BD protein; Table 1): 0.57 µM

Q: With `Nc1nnc(-c2ccccc2O)cc1C#CC1CCNCC1` [Compound 1c, 2-(6-amino-5-(piperidin-4-ylethynyl)pyridazin-3-yl)phenol] as the molecule, how does the IC50 (SMARCA2^BD protein; Table 1) read?
A: 0.19 µM

Q: And the IC50 (MCF-7 cell line)?
A: 12 µM

Q: And the IC50 (A549 cell line)?
A: 25.4 µM

Q: And the IC50 (SMARCA4^BD protein; Table 1)?
A: 0.3 µM

Q: Which IC50 (SMARCA2^BD protein; Table 2) does the source give for `COc1ccc(C#Cc2cc(-c3ccccc3O)nnc2N)cc1` [Compound 17, 2-(6-amino-5-((4-methoxyphenyl)ethynyl)pyridazin-3-yl)phenol] here?
A: 1.1 µM

Q: What about the IC50 (SW1573 cell line) of the same molecule?
A: 99 µM

Q: What about the IC50 (Hela cell line) of the same molecule?
A: 66.3 µM

Q: What about the IC50 (SMARCA4^BD protein; Table 2) of the same molecule?
A: > 3.7 µM

Q: With `Nc1nnc(-c2ccccc2O)cc1C#CC1CCC2(CCNCC2)CC1` [Compound 6c, 2-(5-((3-Azaspiro[5.5]undecan-9-yl)ethynyl)-6-aminopyridazin-3-yl)phenol] as the molecule, how does the IC50 (SMARCA2^BD protein; Table 1) read?
A: 0.2 µM

Q: What about the IC50 (MCF-7 cell line) of the same molecule?
A: 3.7 µM

Q: What about the IC50 (A549 cell line) of the same molecule?
A: 13.6 µM

Q: What about the IC50 (SMARCA4^BD protein; Table 1) of the same molecule?
A: 0.15 µM

Q: Which results are given for `CC(=O)N[C@H]1[C@@H]2CN(c3cc(-c4ccccc4O)nnc3N)C[C@@H]21` [Compound 21, N-((1R,5S,6s)-3-(3-amino-6-(2-hydroxyphenyl)pyridazin-4-yl)-3-azabicyclo[3.1.0]hexan-6-yl)acetamide]?
A: IC50 (SMARCA2^BD protein; Table 2): 0.13 µM; IC50 (SW1573 cell line): > 100 µM; IC50 (Hela cell line): 68.4 µM; IC50 (SMARCA4^BD protein; Table 2): 0.25 µM

Q: With `Nc1nnc(-c2ccccc2O)cc1C#CC1CC2(CNC2)C1` [Compound 4c, 2-(5-((2-Azaspiro[3.3]hept-6-yl)ethynyl)-6-aminopyridazin-3-yl)phenol] as the molecule, how does the IC50 (SMARCA2^BD protein; Table 1) read?
A: 0.19 µM

Q: And the IC50 (MCF-7 cell line)?
A: 12.4 µM

Q: And the IC50 (A549 cell line)?
A: 15.7 µM

Q: And the IC50 (SMARCA4^BD protein; Table 1)?
A: 0.15 µM

Q: Which IC50 (SMARCA2^BD protein; Table 1) does the source give for `Nc1nnc(-c2ccccc2O)cc1C#CC1CC2(CCNCC2)C1` [Compound 10c, 2-(5-((7-Azaspiro[3.5]nonan-2-yl)ethynyl)-6-aminopyridazin-3-yl)phenol] here?
A: 0.19 µM

Q: What about the IC50 (MCF-7 cell line) of the same molecule?
A: 7.03 µM

Q: What about the IC50 (A549 cell line) of the same molecule?
A: 14.6 µM

Q: And the IC50 (SMARCA4^BD protein; Table 1)?
A: 0.14 µM

Q: Which “inhibitory activity in 148 cancer cells” value (148 cancer cells) does the source give for `O=C(/C=C/N1C[C@H]2C[C@@H]1CN2c1ccccn1)c1ccccc1O` [PFI-3] here?
A: did not show significant inhibitory activity

Q: And the chemical stability [1]?
A: poor chemical stability

Q: For `Nc1nnc(-c2ccccc2O)cc1C#CC1CCC2(CC1)CNC2` [Compound 5c, 2-(5-((2-Azaspiro[3.5]nonan-7-yl)ethynyl)-6-aminopyridazin-3-yl)phenol], which IC50 (SMARCA2^BD protein; Table 1) is on record?
A: 0.13 µM

Q: What about the IC50 (MCF-7 cell line) of the same molecule?
A: 7.65 µM

Q: And the IC50 (A549 cell line)?
A: 15.4 µM

Q: What about the IC50 (SMARCA4^BD protein; Table 1) of the same molecule?
A: 0.13 µM

Q: What does the source list for `CN(C)[C@H]1[C@@H]2CN(c3cc(-c4ccccc4O)nnc3N)C[C@@H]21` [Compound 20, 2-(6-amino-5-((1R,5S,6s)-6-(dimethylamino)-3-azabicyclo[3.1.0]hex-3-yl)pyridazin-3-yl)phenol]?
A: IC50 (SMARCA2^BD protein; Table 2): 0.17 µM; IC50 (SW1573 cell line): 91.2 µM; IC50 (Hela cell line): 39 µM; IC50 (SMARCA4^BD protein; Table 2): 0.12 µM

Q: With `Nc1nnc(-c2ccccc2O)cc1C#CC1CCNC1` (stereo not shown) [Compound 2c, 2-(6-Amino-5-(pyrrolidin-3-ylethynyl)pyridazin-3-yl)phenol] as the molecule, how does the IC50 (SMARCA2^BD protein; Table 1) read?
A: 0.33 µM

Q: What about the IC50 (MCF-7 cell line) of the same molecule?
A: 4.73 µM

Q: And the IC50 (A549 cell line)?
A: 7.17 µM

Q: What about the IC50 (SMARCA4^BD protein; Table 1) of the same molecule?
A: 0.28 µM
